Measurements taken from ChEMBL document CHEMBL5046245, “Identification of Pyruvate Carboxylase as the Cellular Target of Natural Bibenzyls with Potent Anticancer Activity against Hepatocellular Carcinoma via Metabolic Reprogramming” (J Med Chem, 2022).
Active and inactive are the calls of the source. The calls are words filed in the database; no cut-off is given here.

How the values were obtained:
HCCLM3 [1] = experiment: Cytotoxicity against PC knockout human HCCLM3 cells assessed as reduction in cell viability at 20 to 100 nM measured after 48 hrs by MTT assay; type: functional, cell-based; conditions: dose 20-100 nM
MHCC97 = experiment: Antiproliferative activity against human MHCC97 cells assessed as inhibition of cell growth measured after 48 hrs by MTT assay; type: functional, cell-based; conditions: MHCC97, 48 h
HCCLM3 [2] = experiment: Anti-invasive activity against PC knockout human HCCLM3 cells assessed as suppression of cell invasion at 0.05 nM measured after 48 hrs by transwell assay; type: functional, cell-based
HepG2 [3] = experiment: Effect on cell cycle arrest in human HepG2 cells assessed as decrease in accumulation of cells at G0/G1 phase at 20 nM measured upto 24 hrs hrs by propidium iodide staining based flow cytometry analysis; type: functional; conditions: time hrs <=24, TDE = time-dependent effect
HCCLM3 [4] = experiment: Induction of apoptosis in human HCCLM3 cells transfected with PC-flag plasmid assessed as reduction in cell viability at 20 to 100 nM incubated for 24 hrs by MTT assay; type: functional, cell-based; conditions: dose 20-100 nM
HepG2 [5] = experiment: Antitumor activity against human HepG2 cells xenografted in NCR-nu/nu mouse assessed reduction in tumor growth at 25 to 50 mg/kg, ip administered alternate days for 21 days and measured 26 days post implantation; type: functional, organism-based; conditions: dose 25-50 mg/kg, time 21.0 day
HCCLM3 [6] = experiment: Induction of apoptosis in human HCCLM3 cells assessed as decrease in cell viability at 20 to 40 nM incubated for 48 hrs in presence of 2 mM OAA MTT assay; type: functional, cell-based; conditions: dose 20-40 nM
HepG2 [7] = experiment: Effect on cell cycle arrest in human HepG2 cells assessed as decrease in accumulation of cells at G0/G1 phase incubated for 24 hrs by propidium iodide staining based flow cytometry analysis; type: functional; conditions: dose 20-80 nM
HCCLM3 [8] = experiment: Inhibition of epithelial-mesenchymal transition in human HCCLM3 cells assessed as decrease in N-cadherin expression at 0.05 to 1 nM incubated for 24 hrs by Western blot analysis; type: functional, cell-based; conditions: dose 0.05-1 nM
HCCLM3 [9] = experiment: Antimigratory activity in human HCCLM3 cells assessed as inhibition of scratch closure at 0.05 to 1 nM measured after 24 hrs by wound healing assay; type: functional, cell-based; conditions: dose 0.05-1 nM
HepG2 [10] = experiment: Induction of apoptosis in human HepG2 cells assessed as cell shrinkage at 100 nM incubated for 24 hrs by DAPI staining based phase contrast microscopic analysis; type: functional
[11] = Toxicity in NCR-nu/nu mouse bearing human HepG2 tumor assessed as effect on body weight at 25 to 50 mg/kg, ip administered alternate days for 21 days and measured every three days; type: organism-based; conditions: in vivo, 504 h, dose 25-50 mg/kg, time 21 day
HCCLM3 [12] = experiment: Effect on ATP production in PC knockout human HCCLM3 cells assessed as reduction in intracellular ATP level at 10 nM by CellTiter-Lumni plus cell viability assay; type: functional, cell-based
SK-HEP1 = experiment: Inhibition of mesenchymal transition in human SK-HEP1 cells overexpressing PC assessed as effect on vimentin expression; type: functional, cell-based
HCCLM3 [13] = experiment: Induction of mitochondrial oxidative stress in human HCCLM3 cells assessed as accumulation of ROS at 10 nM by DCFH-DA staining based flow cytometry analysis; type: functional, cell-based; conditions: TDE = time-dependent effect
[14] = Systemic toxicity in NCR-nu/nu mouse bearing human HCCLM3 tumor assessed as pathological change in heart at 25 to 50 mg/kg, ip administered alternate days for 21 days and measured 26 days post implantation by H and E staining based analysis; type: organism-based; conditions: in vivo, 504 h, dose 25-50 mg/kg, time 21 day
HepG2 [15] = experiment: Competitive inhibition of recombinant pyruvate carboxylase in human HepG2 cell lysate in presence of Erianin at 20 uM for 120 mins followed by irradiation of 365 nm UV light for 15 min by Native -PAGE analysis; type: subcellular
HCCLM3 [16] = experiment: Induction of glycolysis in PC knockout human HCCLM3 cells assessed as intracellular lactate concentration at 10 nM CheKine lactate assay; type: functional, cell-based
HCCLM3 [17] = experiment: Induction of glycolysis in PC knockout human HCCLM3 cells assessed as intracellular glucose consumption at 10 nM; type: functional, cell-based
HepG2 [18] = experiment: Induction of apoptosis in human HepG2 cells assessed as activation of caspase 3 measured after 24 hrs by Western blot analysis; type: functional, cell-based; conditions: dose 10-40 nM
HCCLM3 [19] = experiment: Reversal of H2O2-induced cell death in human HCCLM3 cells at 10 nM pretreated for 24 hrs followed by H2O2 addition and further incubated for 24 hrs in presence of OAA by MTT assay; type: functional, cell-based; conditions: time 48.0 hrs
HCCLM3 [20] = experiment: Induction of glycolysis in human HCCLM3 cells assessed as decrease in level of acetyl-CoA at 5 nM; type: functional, cell-based
HepG2 [21] = experiment: Induction of apoptosis in human HepG2 cells xenografted in NCR-nu/nu mouse assessed as increase in total apoptotic cells in tumor at 50 mg/kg, ip administered alternate days for 21 days and measured 26 days post implantation by TUNEL staining based confocal microscopic analysis; type: functional, organism-based; conditions: time 21.0 day
[22] = Inhibition of pyruvate carboxylase in human HCCLM3 cell lysate measured upto 24 hrs by PC assay kit; type: subcellular
[23] = Antitumor activity against human HCCLM3 cells xenografted in NCR-nu/nu mouse assessed wet tumor weight at 25 mg/kg, ip administered alternate days for 21 days and measured 26 days post implantation (Rvb= 1.835 +/- 0.15 g); type: functional; conditions: time 21 day
HCCLM3 [24] = experiment: Induction of glycolysis in human HCCLM3 cells assessed as decrease in level of oxaloacetate at 5 nM; type: functional, cell-based
HCCLM3 [25] = experiment: Cytotoxicity against human HCCLM3 cells assessed as reduction in cell viability at 5 to 20 nM incubated for 48 hrs in presence of H2O2 by MTT assay; type: functional, cell-based; conditions: dose 5-20 nM
HCCLM3 [26] = experiment: Antiinvasive activity against human HCCLM3 cells assessed as reduction in cell invasion at 0.05 to 1 nM by matrigel transwell assay; type: functional, cell-based; conditions: dose 0.05-1 nM
L02 = experiment: Cytotoxicity against human HL7702 cells assessed as inhibition of cell growth measured upto 400 nM measured after 48 hrs by MTT assay; type: toxicity, cell-based; conditions: l02, 48 h
[27] = Inhibition of pyruvate carboxylase in human HepG2 cells measured upto 24 hrs by PC assay kit; type: cell-based
HCCLM3 [28] = experiment: Inhibition of mitochondrial oxidative stress in PC knockout human HCCLM3 cells assessed as reduction in NADH/NAD ratio at 10 nM; type: functional, cell-based
HepG2 [29] = experiment: Effect on cell cycle arrest in human HepG2 cells assessed as increase in accumulation of cells in G2/M phase at 20 to 80 nM incubated for 24 hrs by propidium iodide staining based flow cytometry analysis; type: functional; conditions: dose 20-80 nM, TDE = time-dependent effect
[30] = Toxicity in NCR-nu/nu mouse bearing human HCCLM3 tumor assessed as effect on body weight at 25 to 50 mg/kg, ip administered alternate days for 21 days and measured every three days; type: organism-based; conditions: in vivo, 504 h, dose 25-50 mg/kg, time 21 day
[31] = Systemic toxicity in NCR-nu/nu mouse bearing human HCCLM3 tumor assessed as pathological change in liver at 25 to 50 mg/kg, ip administered alternate days for 21 days and measured 26 days post implantation by H and E staining based analysis; type: organism-based; conditions: in vivo, 504 h, dose 25-50 mg/kg, time 21 day

## COc1ccc(CCc2cc(OC)c(OC)c(OC)c2)cc1O
HCCLM3 [1]
  Activity: inactive
MHCC97
  IC50: 386 nM
HCCLM3 [2]
  Activity: Active
HepG2 [3]
  Activity: Tde
HCCLM3 [4]
  Activity: inactive
HepG2 [5]
  Activity: Active
HCCLM3 [6]
  Activity: inactive
HepG2 [7]
  Activity: Dose-Dependent Effect
HCCLM3 [8]
  inhibition: Active
HCCLM3 [9]
  Activity: Active
HepG2 [10]
  Activity: Active
[11]
  Activity: Non-Toxic
HCCLM3 [12]
  Activity: Active
SK-HEP1
  inhibition: inactive
HCCLM3 [13]
  Activity: Tde
[14]
  Activity: Non-Toxic
HepG2 [15]
  inhibition: Active
HCCLM3 [16]
  Activity: Active
HCCLM3 [17]
  Activity: Active
HepG2 [18]
  Activity: Dose-Dependent Effect
HCCLM3 [19]
  Activity: Active
HCCLM3 [20]
  Activity: Active
HepG2 [21]
  Activity: Active
[22]
  IC50: 5.18 nM
[23]
  Activity: 1.1883 g
HCCLM3 [24]
  Activity: Active
HCCLM3 [25]
  Activity: Active
HCCLM3 [26]
  Activity: Active
L02
  Activity: Non-Toxic
[27]
  IC50: 9.35 nM
HCCLM3 [28]
  inhibition: Active
HepG2 [29]
  Activity: Tde
[30]
  Activity: Non-Toxic
[31]
  Activity: Non-Toxic
